Assay results published in ChEMBL document CHEMBL5523729, “Development of Degraders of Cyclin-Dependent Kinases 4 and 6 Based on Rational Drug Design” (J Med Chem, 2024).
Active and inactive are the calls of the source. The calls are words filed in the database; no cut-off is given here.

Tests used:
[1] = test system: Jurkat; assay: Anti-proliferative activity against human Jurkat cells assessed as cell growth inhibition measured after 72 hrs by CCK8 assay; type: functional, cell-based
[2] = molecular target: T1, Protein cereblon/Cyclin-dependent kinase 6 (Homo sapiens, UniProt Q00534+Q96SW2); assay: PROTAC activity at CDK6/CRBN in human Jurkat cells assessed as protein degradation by Western blot analysis; type: cell-based
Target sequence in this assay (Q00534 whole entry): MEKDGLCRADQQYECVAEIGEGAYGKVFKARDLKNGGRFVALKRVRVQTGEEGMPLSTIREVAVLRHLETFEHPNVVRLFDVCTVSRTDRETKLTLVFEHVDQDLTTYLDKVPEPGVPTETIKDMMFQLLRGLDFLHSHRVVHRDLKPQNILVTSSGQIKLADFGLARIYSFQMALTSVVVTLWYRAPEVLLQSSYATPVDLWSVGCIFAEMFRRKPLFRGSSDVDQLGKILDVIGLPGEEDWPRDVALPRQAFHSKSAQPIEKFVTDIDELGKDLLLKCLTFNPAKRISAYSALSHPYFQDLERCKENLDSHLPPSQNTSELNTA
Target sequence in this assay (Q96SW2 whole entry): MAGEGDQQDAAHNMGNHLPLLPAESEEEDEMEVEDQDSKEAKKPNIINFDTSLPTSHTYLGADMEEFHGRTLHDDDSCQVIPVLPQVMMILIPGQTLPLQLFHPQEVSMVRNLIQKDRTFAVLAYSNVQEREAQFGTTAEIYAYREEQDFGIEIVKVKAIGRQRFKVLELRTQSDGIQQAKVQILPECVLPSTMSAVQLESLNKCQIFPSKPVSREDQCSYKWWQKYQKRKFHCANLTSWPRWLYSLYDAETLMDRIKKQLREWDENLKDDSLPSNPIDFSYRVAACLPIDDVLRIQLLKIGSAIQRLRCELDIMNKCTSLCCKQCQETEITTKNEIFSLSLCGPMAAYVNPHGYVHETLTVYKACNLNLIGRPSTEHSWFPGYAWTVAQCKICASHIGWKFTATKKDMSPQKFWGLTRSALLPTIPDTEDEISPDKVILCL

[3] = molecular target: T1, Protein cereblon/Cyclin-dependent kinase 6; assay: PROTAC activity at CDK6/CRBN in human Jurkat cells assessed as maximal protein degradation by Western blot analysis relative to control; type: cell-based
Target sequence in this assay (Q00534 whole entry, looked up): as the sequence (Q00534 whole entry) above
Target sequence in this assay (Q96SW2 whole entry, looked up): as the sequence (Q96SW2 whole entry) above

[4] = molecular target: T2, Protein cereblon/Cyclin-dependent kinase 4 (Homo sapiens, UniProt P11802+Q96SW2); assay: PROTAC activity at CDK4/CRBN in human Jurkat cells assessed as maximal protein degradation by Western blot analysis relative to control; type: cell-based
Target sequence in this assay (P11802 2-303 limits assumed): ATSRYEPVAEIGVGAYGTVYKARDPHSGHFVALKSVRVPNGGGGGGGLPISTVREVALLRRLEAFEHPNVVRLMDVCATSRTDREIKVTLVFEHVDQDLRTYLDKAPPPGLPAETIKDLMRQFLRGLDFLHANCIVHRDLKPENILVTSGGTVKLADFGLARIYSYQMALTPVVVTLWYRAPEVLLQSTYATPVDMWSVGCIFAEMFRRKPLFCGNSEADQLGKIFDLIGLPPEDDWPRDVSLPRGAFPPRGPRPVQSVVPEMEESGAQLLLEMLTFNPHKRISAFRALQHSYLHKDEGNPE
Target sequence in this assay (Q96SW2 whole entry partner): as the sequence (Q96SW2 whole entry) above

[5] = molecular target: T2, Protein cereblon/Cyclin-dependent kinase 4; assay: PROTAC activity at CDK4/CRBN in human Jurkat cells assessed as protein degradation by Western blot analysis; type: cell-based
Target sequence in this assay (P11802 whole entry): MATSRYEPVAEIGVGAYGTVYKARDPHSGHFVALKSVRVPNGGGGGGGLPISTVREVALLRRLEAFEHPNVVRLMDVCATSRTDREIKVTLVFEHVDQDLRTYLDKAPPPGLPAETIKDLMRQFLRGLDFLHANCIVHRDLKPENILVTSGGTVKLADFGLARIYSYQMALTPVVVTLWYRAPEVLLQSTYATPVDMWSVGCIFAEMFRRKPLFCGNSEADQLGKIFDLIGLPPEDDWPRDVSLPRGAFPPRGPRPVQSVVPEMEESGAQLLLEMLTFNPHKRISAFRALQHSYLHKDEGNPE
Target sequence in this assay (Q96SW2 whole entry): as the sequence (Q96SW2 whole entry) above

[6] = molecular target: Protein cereblon/Cyclin-dependent kinase 5 (Homo sapiens) (UniProt Q00535+Q96SW2); assay: PROTAC activity at CDK5/CRBN in human Jurkat cells assessed as protein degradation at 1 uM measured after 24 hrs by Western blot analysis; type: cell-based
[7] = test system: Jurkat; assay: Induction of apoptosis in human Jurkat cells assessed as apoptotic cells measured after 24 hrs by Annexin V-FITC/PI staining based analysis; type: functional, cell-based; conditions: dose 0.1-1 µM
[8] = molecular target: Protein cereblon/Cyclin-dependent kinase 7 (Homo sapiens) (UniProt P50613+Q96SW2); assay: PROTAC activity at CDK7/CRBN in human Jurkat cells assessed as protein degradation at 1 uM measured after 24 hrs by Western blot analysis; type: cell-based
[9] = molecular target: T1, Protein cereblon/Cyclin-dependent kinase 6; assay: PROTAC activity at CDK6/CRBN in human Jurkat cells assessed as protein degradation at 1 to 1000 nM by Western blot analysis; type: cell-based; conditions: dose 1-1000 nM, time 3-24 hrs, TDE = time-dependent effect
Target sequence in this assay (Q00534 whole entry, looked up): as the sequence (Q00534 whole entry) above
Target sequence in this assay (Q96SW2 whole entry, looked up): as the sequence (Q96SW2 whole entry) above

[10] = molecular target: T2, Protein cereblon/Cyclin-dependent kinase 4; assay: PROTAC activity at CDK4/CRBN in human Jurkat cells assessed as protein degradation at 1 uM after 12 hrs by Western blot analysis; type: cell-based
Target sequence in this assay (P11802 2-303 limits assumed): as the sequence (P11802 2-303 limits assumed) above
Target sequence in this assay (Q96SW2 whole entry partner): as the sequence (Q96SW2 whole entry) above

[11] = test system: Jurkat; assay: Anti-tumor activity against human Jurkat cells assessed as increase in cleaved caspase-3 level by Western blot analysis; type: functional, cell-based; conditions: dose 1-1000 nM
[12] = molecular target: T2, Protein cereblon/Cyclin-dependent kinase 4; assay: PROTAC activity at CDK4/CRBN in human Jurkat cells assessed as protein degradation at 1 to 1000 nM by Western blot analysis; type: cell-based; conditions: dose 1-1000 nM, time 3-24 hrs, TDE = time-dependent effect
Target sequence in this assay (P11802 2-303 limits assumed): as the sequence (P11802 2-303 limits assumed) above
Target sequence in this assay (Q96SW2 whole entry partner): as the sequence (Q96SW2 whole entry) above

[13] = molecular target: T1, Protein cereblon/Cyclin-dependent kinase 6; assay: PROTAC activity at CDK6/CRBN in human Jurkat cells assessed as protein degradation at 1 uM after 12 hrs by Western blot analysis; type: cell-based
Target sequence in this assay (Q00534 whole entry, looked up): as the sequence (Q00534 whole entry) above
Target sequence in this assay (Q96SW2 whole entry, looked up): as the sequence (Q96SW2 whole entry) above

[14] = molecular target: T2, Protein cereblon/Cyclin-dependent kinase 4; assay: PROTAC activity at CDK4/CRBN in human Jurkat cells assessed as protein degradation after 3 to 24 hrs by Western blot analysis; type: cell-based; conditions: dose 1-1000 nM, time 3-24 hrs
Target sequence in this assay (P11802 2-303 limits assumed): as the sequence (P11802 2-303 limits assumed) above
Target sequence in this assay (Q96SW2 whole entry partner): as the sequence (Q96SW2 whole entry) above

[15] = molecular target: T1, Protein cereblon/Cyclin-dependent kinase 6; assay: PROTAC activity at CDK6/CRBN in human Jurkat cells assessed as protein degradation after 3 to 24 hrs by Western blot analysis; type: cell-based; conditions: dose 1-1000 nM, time 3-24 hrs
Target sequence in this assay (Q00534 whole entry, looked up): as the sequence (Q00534 whole entry) above
Target sequence in this assay (Q96SW2 whole entry, looked up): as the sequence (Q96SW2 whole entry) above

[16] = test system: Jurkat; assay: Anti-tumor activity against human Jurkat cells assessed as suppression of p-RB (Ser780) at 1 uM by Western blot analysis; type: functional, cell-based
[17] = molecular target: Protein cereblon/Cyclin-dependent kinase 2 (Homo sapiens) (UniProt P24941+Q96SW2); assay: PROTAC activity at CDK2/CRBN in human Jurkat cells assessed as protein degradation at 1 uM measured after 24 hrs by Western blot analysis; type: cell-based
[18] = test system: Jurkat; assay: Cell cycle arrest in human Jurkat cells assessed as accumulation of cells at G1 phase measured after 24 hrs by flow cytometry; type: functional, cell-based; conditions: dose 0.1-1 µM
[19] = test system: Jurkat; assay: Anti-tumor activity against human Jurkat cells assessed as increase in cleaved PARP level by Western blot analysis; type: functional, cell-based; conditions: dose 1-1000 nM
[20] = molecular target: Protein cereblon/Cyclin-dependent kinase 8 (Homo sapiens) (UniProt P49336+Q96SW2); assay: PROTAC activity at CDK8/CRBN in human Jurkat cells assessed as protein degradation at 1 uM measured after 24 hrs by Western blot analysis; type: cell-based
Sequence of Protein cereblon/Cyclin-dependent kinase 8 (Homo sapiens) (P49336 whole entry, looked up): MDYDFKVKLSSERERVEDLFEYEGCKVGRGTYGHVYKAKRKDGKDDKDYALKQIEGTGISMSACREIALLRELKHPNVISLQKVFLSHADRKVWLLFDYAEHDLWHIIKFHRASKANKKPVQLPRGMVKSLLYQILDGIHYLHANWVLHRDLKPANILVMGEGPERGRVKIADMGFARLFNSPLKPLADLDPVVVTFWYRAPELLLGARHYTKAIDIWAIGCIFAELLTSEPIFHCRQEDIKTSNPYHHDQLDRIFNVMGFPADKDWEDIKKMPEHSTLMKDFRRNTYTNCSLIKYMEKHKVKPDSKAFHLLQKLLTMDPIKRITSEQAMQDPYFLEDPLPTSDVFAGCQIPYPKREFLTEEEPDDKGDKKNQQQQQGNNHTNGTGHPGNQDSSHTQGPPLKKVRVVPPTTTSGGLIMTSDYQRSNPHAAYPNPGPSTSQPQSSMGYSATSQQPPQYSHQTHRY
Sequence of Protein cereblon/Cyclin-dependent kinase 8 (Homo sapiens) (Q96SW2 whole entry, looked up): as the sequence (Q96SW2 whole entry) above

[21] = molecular target: Protein cereblon/Cyclin-dependent kinase 1 (Homo sapiens) (UniProt P06493+Q96SW2); assay: PROTAC activity at CDK1/CRBN in human Jurkat cells assessed as protein degradation at 1 uM measured after 24 hrs by Western blot analysis; type: cell-based
[22] = molecular target: T2, Protein cereblon/Cyclin-dependent kinase 4; assay: PROTAC activity at CDK4/CRBN in human Jurkat cells assessed as protein degradation at 1 uM measured after 24 hrs by Western blot analysis; type: cell-based
Target sequence in this assay (P11802 2-303 limits assumed): as the sequence (P11802 2-303 limits assumed) above
Target sequence in this assay (Q96SW2 whole entry partner): as the sequence (Q96SW2 whole entry) above

[23] = molecular target: Cyclin-dependent kinase 6 (Homo sapiens, UniProt Q00534); assay: Inhibition of CDK6 (unknown origin)
Sequence of Cyclin-dependent kinase 6 (Q00534 whole entry): as the sequence (Q00534 whole entry) above

[24] = molecular target: Cyclin-dependent kinase 4 (Homo sapiens, UniProt P11802); assay: Inhibition of CDK4 (unknown origin)

DC50 [2] | Emax [3] | Emax [4] | DC50 [5] | SMILES | other results
– | – | – | – | CC(=O)c1c(C)c2cnc(Nc3ccc(N4CCNCC4)cn3)nc2n(C2CCCC2)c1=O [PALBOCICLIB] | IC50 [1]: 1500 nM
93 nM | 91% | 60% | 162 nM | O=C1CCC(N2C(=O)c3cccc(NCCOCCN4CCN(c5ccc(Nc6ncc7ncc(=O)n(C8CCCC8)c7n6)cc5)CC4)c3C2=O)C(=O)N1 (configuration not stated) | –
5.3 nM | 94% | 53% | 557 nM | O=C1CCC(N2C(=O)c3cccc(NCCOCCOCCN4CCN(c5ccc(Nc6ncc7ncc(=O)n(C8CCCC8)c7n6)cc5)CC4)c3C2=O)C(=O)N1 (configuration not stated) | –
16.3 nM | 95% | 42% | > 1000 nM | O=C1CCC(N2C(=O)c3cccc(NC(=O)CCCCCn4cc(CN5CCN(c6ccc(Nc7ncc8ncc(=O)n(C9CCCC9)c8n7)cc6)CC5)nn4)c3C2=O)C(=O)N1 (configuration not stated) | –
58 nM | 85% | 95% | 14.9 nM | O=C1CCC(N2C(=O)c3cccc(NC(=O)CCCCCN4CCN(c5ccc(Nc6ncc7ncc(=O)n(C8CCCC8)c7n6)cc5)CC4)c3C2=O)C(=O)N1 (configuration not stated) | –
6.6 nM | 95% | 41% | > 1000 nM | O=C1CCC(N2C(=O)c3cccc(NC(=O)CCCCCCN4CCN(c5ccc(Nc6ncc7ncc(=O)n(C8CCCC8)c7n6)cc5)CC4)c3C2=O)C(=O)N1 (configuration not stated) | –
2.3 nM | 90% | 68% | 138 nM | O=C1CCC(N2C(=O)c3ccc(N4CCN(CC5CCN(C(=O)CN6CCN(c7ccc(Nc8ncc9ncc(=O)n(C%10CCCC%10)c9n8)cc7)CC6)CC5)CC4)cc3C2=O)C(=O)N1 (configuration not stated) | –
3.9 nM | 86% | 75% | 9.8 nM | O=C1CCC(N2C(=O)c3ccc(N4CCN(C(=O)CN5CCN(c6ccc(Nc7ncc8ncc(=O)n(C9CCCC9)c8n7)cc6)CC5)CC4)cc3C2=O)C(=O)N1 (configuration not stated) | –
43.3 nM | 92% | 60% | 434 nM | O=C1CCC(N2C(=O)c3cccc(NC(=O)CCCCCCC(=O)N4CCN(c5ccc(Nc6ncc7ncc(=O)n(C8CCCC8)c7n6)cc5)CC4)c3C2=O)C(=O)N1 (configuration not stated) | –
2.5 nM | 96% | 100% | 10.5 nM | O=C(CCCCN1CCN(c2ccc(Nc3ncc4ncc(=O)n(C5CCCC5)c4n3)cc2)CC1)NCCNc1cccc2c1C(=O)N(C1CCC(=O)NC1=O)C2=O (configuration not stated) | Activity [6]: inactive; Activity [7]: Dose-Dependent Effect; Activity [8]: inactive; Activity [9]: Tde; Activity [10]: 100%; Activity [11]: Dose-Dependent Effect; Activity [12]: Tde; Activity [13]: 100%; Activity [14]: Dose-Dependent Effect; Activity [15]: Dose-Dependent Effect; Activity [16]: Active; IC50 [1]: 183 nM; Activity [17]: inactive; Activity [18]: Dose-Dependent Effect; Activity [19]: Dose-Dependent Effect; Activity [20]: inactive; Activity [21]: inactive; Activity [22]: inactive
– | – | – | – | O=c1cnc2cnc(Nc3ccc(N4CCNCC4)cc3)nc2n1C1CCCC1 | IC50 [23]: 88 nM; IC50 [1]: 1470 nM; IC50 [24]: 7.7 nM
> 1000 nM | 40% | 14% | > 1000 nM | O=C(CN1CCN(c2ccc(Nc3ncc4ncc(=O)n(C5CCCC5)c4n3)cc2)CC1)NCCCCNc1cccc2c1C(=O)N(C1CCC(=O)NC1=O)C2=O (configuration not stated) | –
